Results from patent US20080226565A1, “Anticariogenic Proteins & Peptides & Saccharides” (priority 2004, published 2008).

Experiments:
[1] = In-vivo: residual protection, radiated samples after 5 days in oral cavity treated with acetic acid; design: species or system human
Description: N: number of tooth samples A: hardness(μm) after radiation and 5 days residence in the oral cavity B: hardness after radiation and 5 days in the oral cavity and treatment with acetic acid

Streptococcus spp. = experiment: Susceptibility (MIC), agar dilution, Streptococcus spp.; type: cell-based; settings: 6 from 9 Streptococcus strains
Experimental: The investigations included more than hundred strains isolated from the oral cavity: : anaerobes, microaerophilic bacteria, aerobes, Streptococcus spp. and yeast like fungi. The microorganisms were isolated from saliva, mucosal membrane, gingival pockets and caries decay. The susceptibility (MIC) of bacteria and yeastlike fungi were determined by means of plate dilution technique in agar.
The investigated samples were dissolved in sterile distilled water (immediately before the experiment) to obtain the following concentrations: 3.5, 1.7, 0.8, 0.4 and 0.2 mg/ml and were added into appropriate agar. The plates were inoculated using a Steers multipoint inoculator. Inoculum contained 10^6 CFU/spot. […]
Anaerobes. The susceptibility of bacteria was determined by means of the agar dilution methods with Brucella agar supplemented with 5% defibrinated sheep's blood, menadione and hemin. […] The susceptibility of bacteria was determined by means of the agar dilution methods with Brucella agar supplemented with 5% sheep's blood. […] The susceptibility of bacteria was determined by means of the agar dilution methods with Mueller-Hinton agar supplemented with 5% sheep's blood. […] The susceptibility to investigated samples was determined by means of the plate dilution technique in Mueller-Hinton agar. […]

[2] = In-vivo: radiated tooth samples treated with protector, 5 days in the oral cavity, Knoop hardness; design: species or system human; settings: for delta: change of hardness (increase of depth of penetration): radiation + 5 days in oral cavity, 0.1% fluoride or 4% bisphosphonate e-polylysine with CaCl2 and KH2PO4
Description: A device is constructed that can contain up to 6 experimental tooth samples for positioning in the oral cavity. […] The construction of the experimental tooths samples is outlined in chapter C.2.“Results; in-vivo experiments”. In the oral cavity, the tooth samples are positioned in the device in such a way that the enamel surfaces are subjected to physical contact with the tongue and are submerged in saliva. […] In experiments where the device is residing a long time period in the oral cavity (5 days and more), a metal network is positioned just above the surface of the experimental teeth, in order to provide support for the bacteria and stimulate it's growth path. It is also possible to measure the residual protection competence by removing the tooth samples from the oral cavity at the end of the selected residence time and treating them with acid under laboratory conditions.
The device was positioned after the lower jaw in the oral cavity for a period of five days. After removal from the oral cavity, the samples where cleaned and the hardness was measured.
Tooth samples have been cut in horizontal slices (thickness: 0.3 to 1 mm) with a Leitz 1600 tooth cutter with horizontal cutting blade; the slices are cut manually (with a bore) into small tooth samples that contain a small part of the original tooth surface. The tooth sample is positioned in a small plastic tube, that has been cut from a long plastic tube with 6 mm external diameter. The length of the tube is 3 to 6 mm. The inner part of the tube is filled with a polymer that hardens under light (Photoclearfil Bright; Kuraray). The tooth sample is positioned in the soft polymer inside the tube, in such a way that the original tooth surface is just surfacing above the tube. Finally the polymer is hardened with a light source. The tooth surface is polished with Struers silicon carbid paper (800-4000) and the hardness is measured 5 times on each of the samples under the Letiz Wetzlar microscope (weight on needle: 50 p). Tooth samples with a maximum average depth of penetration of 43 μm are retained for use in the oral cavity.
Tooth samples have been subjected to a radiation dose that is equal to the amount that is given to patients with oral cancer (20 Gray) and have been sterilized. […] A drop of the solution was positioned on the tooth surface and allowed to reside for a period of 30 minutes at 37 C.; the procedure was repeated after removal of the drop with pressured air. Finally the drop was removed, the tooth was dried on air and fixed to the device. In total six tooth samples have been fixed to the device and positioned in the oral cavity after the lower jaw. It remained in the oral cavity for a period of 5 days (day and night). After completion of the required residence time, the device was removed from the oral cavity and the experimental teeth where separated from the device and washed. The hardness was measured according to the Knoop method, six times on each of the tooth samples.
B: the stage at which the hardness of the tooth surface has been measured with the Knoop method. (before the treatment; after radiation and before addition of protector formulation to the surface; after addition of protector to the surface of the tooth and after residing five days in the oral cavity).
B: the stage at which the hardness of the tooth surface has been measured with the Knoop method.

For “bisphosphonylated epsilon-polylysine [bisphosphonylated e-polylysine]”, the “C: B−A (increase of depth of penetration by acid)” value ([1]; acetic acid 0.1N, 30 min, 37° C. after 5 days in oral cavity) was 3.9 μm, the “B: hardness after radiation and 5 days in the oral cavity and treatment with acetic acid” value ([1]; acetic acid 0.1N, pH 5, 30 min, 37° C.) was 44.5 μm and the “A: hardness after radiation and 5 days residence in the oral cavity” value ([1]; samples later treated with acid) was 40.6 μm. For the same substance, the “concentration inhibiting growth (MIC)” value (Streptococcus spp.) was 1700 µg/mL, the “Mean hardness (depth of penetration)” value ([2]; after protector and 5 days oral cavity, 0.1% NaF or 4% bisphosphonate e-polylysine with CaCl2 and KH2PO4) was 41.97 μm and the “Mean hardness (depth of penetration)” value ([2]; after radiation, before addition of protector (baseline of group)) was 41.02 μm. For the same substance, the “delta: change of hardness” value ([2]; after radiation, before addition of the formulation) was 0.15 μm, the “delta: change of hardness (increase of depth of penetration)” value ([2]; listed as bisphosphonate e-polylysine) was 1.10 μm and the “delta: change of hardness (increase of depth of penetration)” value ([2]; listed as bisphosphonylated epsilon-polylysine) was 1.1 μm. The “Mean hardness (depth of penetration)” value ([2]; start, before treatment (baseline of group)) was 40.87 μm.
